Results published in PubChem BioAssay AID1996.
Converted amounts (≈) assume the structure as drawn.

Conditions: buffer; pH 7.4; 200.0 µM

Point of comparison: `O=C(c1cnc2nc3ccccc3n2c1)c1cc(F)ccc1O`, solubility kinetic 9.2 µg/mL (≈ 29.9 µM). Against it:
- C=CC(=O)NC(NC(=O)C=C)c1ccccc1F — higher, > 37.2 µg/mL
- O=C(CCc1nc(-c2ccc(F)cc2)no1)NCc1ccccc1CN1CCOCC1 — higher, > 63.7 µg/mL
- COc1ccc(C(=O)O)cc1S(=O)(=O)NCc1cccnc1 — higher, > 48.4 µg/mL
- CC(C)(CO)NCC#Cc1ccccc1.Cl — higher, > 36 µg/mL
- CC(=O)N1CCN(c2ccc(S(C)(=O)=O)cc2[N+](=O)[O-])CC1 — higher, > 49.1 µg/mL
- COc1ccc(C(=O)CC(=O)C(=O)Nc2ccccc2OC)cc1 — 1.8-fold higher, 16.2 µg/mL (≈ 49.5 µM)
- Cc1ccc(C)c(C(=O)CSc2nc(N)cc(=O)[nH]2)c1 — 2.1-fold higher, 19.2 µg/mL (≈ 66.4 µM)
- O=C(O)c1cccc(N2C(=O)CSC2c2ccccc2)c1 (stereo not drawn) — higher, > 44.9 µg/mL
- CC1CCCC(C)N1C(=O)COC(=O)c1cccnc1Cl (stereo not drawn) — higher, > 46.6 µg/mL
- CCn1c(=O)c2sccc2n(Cc2cccc(C)c2)c1=O — within 1.5-fold, 9 µg/mL (≈ 30 µM)
- C[C@H](NC(=O)c1ccco1)C(=O)NC1CCCCCC1 — higher, > 41.8 µg/mL
- Cc1cc(C)c(S(=O)(=O)c2ccc(C(C)(C)C)cc2)c(Cl)n1 — lower, < 0.7 µg/mL
- O=C(Nc1ccc2oc(-c3ccccc3F)nc2c1)c1ccccc1F — lower, < 0.4 µg/mL
- COc1ccccc1Nc1nc(N)nc(CCl)n1 — 3.8-fold higher, 35.4 µg/mL (≈ 133 µM)
- CC(=O)c1ccc(Nc2ccc([N+](=O)[O-])c3nonc23)cc1 — 2.2-fold lower, 4.2 µg/mL (≈ 14.1 µM)
- Cc1ccc(SCc2ccc(C(=O)Nc3nccs3)o2)cc1 — 4.2-fold lower, 2.2 µg/mL (≈ 6.66 µM)
- Cc1ccc(CNc2cc(C(=O)O)ccc2C)s1 — higher, > 39.2 µg/mL
- COC(=O)Nc1ccc(S(=O)(=O)Nc2cnc3ccccc3n2)cc1 — higher, > 53.8 µg/mL
- CSc1cccc(NC(N)=S)c1 — 3.2-fold higher, 29.2 µg/mL (≈ 147 µM)
- CCCCCCCCCCCCCCCC[N+](C)(C)CC.[Br-] — 3.8-fold higher, 34.5 µg/mL
- CCOC(=O)C1CCCN(C(=O)c2cc(-c3ccco3)nc3ccccc23)C1 (stereo not drawn) — higher, > 56.8 µg/mL
- CN(c1ccccc1)S(=O)(=O)c1cccc2ccccc12 — 4.2-fold lower, 2.2 µg/mL (≈ 7.4 µM)
- O=C(Nc1ccncc1)c1ccc(Cl)cc1 — higher, > 34.9 µg/mL
- O=C(CN1C(=O)c2ccccc2C1=O)NC1CCC(O)CC1 (stereo not drawn) — higher, > 45.3 µg/mL
- COc1ccc(C(=O)C2CCCN(C(=O)c3cnsn3)C2)c(C)c1 (stereo not drawn) — 4.3-fold higher, 40 µg/mL (≈ 116 µM)
- COc1ccc(C(=O)NCCc2ccc(F)cc2)cc1OC — higher, > 45.5 µg/mL
- Cn1cccc1C(=O)NC1CCCCC1 — higher, > 30.9 µg/mL
- CC(C)CCNC(=O)C1CCC(=O)N1CCc1ccccc1 (stereo not drawn) — 4.7-fold higher, 42.8 µg/mL (≈ 142 µM)
- COc1ccc(Cl)cc1NC(=O)Cn1c(C)csc1=O — 2-fold higher, 18.3 µg/mL (≈ 58.5 µM)
- O=C(CCc1c[nH]c2ccccc12)N1CCCC1 — higher, > 36.3 µg/mL
- Cc1cc2ncc(S(=O)(=O)C(C)(C)C)c(N)n2n1 — higher, > 40.2 µg/mL
- Cn1c(N)nc2ccccc2c1=O — 2.4-fold higher, 21.9 µg/mL (≈ 125 µM)
- CN(C)CCNC(=O)c1ccccc1-c1cc2ccccc2c(=O)o1 — higher, > 50.5 µg/mL
- CCOc1cc(/C=C2\N=C(C)OC2=O)cc(Cl)c1OCC(=O)OC — 2.5-fold higher, 23.1 µg/mL (≈ 65.3 µM)
- Cc1ccc2[nH]c3c(c2c1)CCCC3NC(=O)CCl (stereo not drawn) — higher, > 41.5 µg/mL
- COCCCNC(=O)C(CC(N)=O)NC(=O)OCc1ccccc1 (stereo not drawn) — higher, > 50.6 µg/mL
- CN(C)S(=O)(=O)c1ccc(N2CCCC2)c(C(=O)Nc2nccs2)c1 — 5.6-fold higher, 51.6 µg/mL (≈ 136 µM)
- COc1ccc(-c2nc(=S)n3ccsc3n2)cc1OC — 2.1-fold lower, 4.4 µg/mL (≈ 14.4 µM)
- Cc1ccc(C)c(NC(=O)CSc2nccn2Cc2ccco2)c1 — higher, > 51.2 µg/mL
- CCOc1ccc2[nH]c3c(NCCN(C)C)ncnc3c2c1 — higher, > 44.9 µg/mL
- COc1ccc(CNc2ccc(Cl)cc2)cc1Cn1ccnc1 — 3.4-fold higher, 31.1 µg/mL (≈ 94.9 µM)
- O=C(c1ccc(-c2ccccc2)cc1)N1CCN(c2ccccc2F)CC1 — 5.1-fold lower, 1.8 µg/mL (≈ 4.99 µM)
- CCc1ccc(CCC(=O)Nc2ccc(Cl)cc2)o1 — within 1.5-fold, 8.1 µg/mL (≈ 29.2 µM)
- O=C1c2ccsc2SCCN1Cc1ccc(F)cc1 — 4.4-fold higher, 40.5 µg/mL (≈ 138 µM)
- COc1ccc2nc(SCC(=O)NC3CCCCC3)[nH]c2c1 — higher, > 47.9 µg/mL
- O=C(Nc1ccccc1C(=O)Nc1cccnc1)c1ccccc1 — within 1.5-fold, 6.3 µg/mL (≈ 19.9 µM)
- COc1ccc(OCCSc2nc(N)cc(=O)[nH]2)cc1 — 2.2-fold higher, 20.7 µg/mL (≈ 70.6 µM)
- CC(=O)Nc1ccc(S(=O)(=O)N[C@@H](C)C(=O)NC2CCCc3ccccc32)cc1 (stereo partly drawn) — 3.3-fold higher, 30.3 µg/mL (≈ 72.9 µM)
- Cc1cccc(NC(=S)N(CCN(C)C)C(C)c2cccnc2)c1 (stereo not drawn) — higher, > 51.4 µg/mL
- Cc1[nH]c2ccccc2c1C(=O)C(C)OC(=O)c1ccc(Cl)nc1 (stereo not drawn) — 2.9-fold higher, 26.6 µg/mL (≈ 77.6 µM)
- COc1ccc(C)cc1NC1=NC(C)(C)CS1 — 3.9-fold higher, 36.1 µg/mL (≈ 144 µM)
- COc1ccc(NC(=O)NC(C)c2ccccc2)cc1 (stereo not drawn) — 1.7-fold higher, 15.5 µg/mL (≈ 57.3 µM)
- COc1ccc(NC2CCCN(Cc3cccc4cnccc34)C2)cc1 (stereo not drawn) — 5.4-fold higher, 49.4 µg/mL (≈ 142 µM)
- O=C(CN1CCC(c2nc3ccccc3s2)CC1)N1CCCCC1 — higher, > 51.5 µg/mL
- CCN1c2ccccc2N(C)C1(C)c1ccccc1 (stereo not drawn) — 2.3-fold higher, 21.5 µg/mL (≈ 85.2 µM)
- Cc1ccc(CN2C(=O)C(=O)N(CC(N)=O)C2=O)cc1 — higher, > 41.3 µg/mL
- COc1ccc(C(=O)NCC2(c3ccccc3)CCCC2)c(OC)c1 — 2.4-fold lower, 3.8 µg/mL (≈ 11.2 µM)
- O=C1NC2(CCCCC2)C(=O)N1c1cccc(Cl)c1 — within 1.5-fold, 11.1 µg/mL (≈ 39.8 µM)
- CC1Cc2ccccc2N1S(=O)(=O)c1cccc(C(=O)NCc2ccco2)c1 (stereo not drawn) — 1.6-fold higher, 14.7 µg/mL (≈ 37.1 µM)
- O=C(CCOc1ccccc1)Nc1ccc(Br)cc1 — lower, < 0.7 µg/mL
- Cc1cc(C)c(C#N)c(SCCN2CCOCC2)n1 — higher, > 41.6 µg/mL
- COC(=O)c1cn(C(=O)c2cccc(C)c2)c2ccccc12 — 2.4-fold lower, 3.9 µg/mL (≈ 13.3 µM)
- O=C1ON=C(c2ccccc2)/C1=C\c1ccco1 — 3.8-fold higher, 35.2 µg/mL (≈ 147 µM)
- CCOc1ccc(S(=O)(=O)/N=C(/c2ccccc2)N(C)C)cc1 — higher, > 49.9 µg/mL
- Cc1ncc(CSc2ccc(Cl)cc2)c(CO)c1O — 1.5-fold higher, 14.1 µg/mL (≈ 47.7 µM)
- Nc1cccc(NP(=O)(c2ccccc2)c2ccccc2)c1 — 5.4-fold lower, 1.7 µg/mL (≈ 5.51 µM)
- COc1nc(NC(=O)c2ccc(F)cc2)nc(OC)c1-c1ccccc1 — 1.5-fold lower, 6 µg/mL (≈ 17 µM)
- CCOC(=O)c1c(C)[nH]c(C)c1C(=O)COC(=O)c1ccc(O)cc1 — higher, > 51.8 µg/mL
- C=CCc1ccccc1Oc1cc(OC)nc(N)n1 — higher, > 38.6 µg/mL
- O=C(CSc1nc2ccccc2o1)NCC1CCCO1 (stereo not drawn) — higher, > 43.9 µg/mL
- CC1CCCCN1C(=O)c1cc2ccccc2cc1O (stereo not drawn) — higher, > 40.4 µg/mL
- COC(=O)c1c(C(C)=O)c(C)n(C)c1C — higher, > 31.4 µg/mL
- Cc1cccc(C)c1OCCCCN1CCCCC1.O=C(O)C(=O)O — 4.9-fold higher, 45.4 µg/mL
- Cc1ccc(NC(=O)CCC(=O)c2cccs2)cc1F — 2.1-fold lower, 4.3 µg/mL (≈ 14.8 µM)
- Cc1ccc(C(=O)N2CCN(c3ncccn3)CC2)c(C)c1 — 3-fold higher, 27.5 µg/mL (≈ 92.8 µM)
- O=C(NC1CC2CCCC(C1)N2Cc1ccc(F)cc1)c1ccc(F)cc1 (stereo not drawn) — higher, > 55.6 µg/mL
- Cc1cc(NC(=O)c2cc(-c3ccncc3)nc3ccccc23)ccc1Br — 7.7-fold lower, 1.2 µg/mL (≈ 2.87 µM)
- COc1ccc(N2CCCC2)c(NC(=O)COc2ccccc2Cl)c1 — 9.2-fold lower, 1 µg/mL (≈ 2.77 µM)
- Cc1ccc2c(CC(=O)NC3CCS(=O)(=O)C3)coc2c1C (stereo not drawn) — higher, > 48.2 µg/mL
- CCN(CC)C(=O)Cc1ccccc1 — higher, > 28.7 µg/mL
- S=C(NCc1cccnc1)Nc1ccc(Cl)cc1Cl — higher, > 46.8 µg/mL
- CSc1ccc(CNCCCSc2ncccn2)cc1.Cl — higher, > 51.3 µg/mL
- Cc1ccc(C(=O)NCCCn2ccnc2)cc1C — higher, > 38.6 µg/mL
- CCOc1cccc(OCCCCn2cnc3ccccc3c2=O)c1 — 2.7-fold lower, 3.4 µg/mL (≈ 10 µM)
- CCc1cc(C(=O)N2CCN(c3ccccn3)CC2)sc1C — 4.7-fold higher, 43 µg/mL (≈ 136 µM)
- CC(C)n1c(=S)[nH]c2cc(Cl)ccc21 — within 1.5-fold, 11 µg/mL (≈ 48.5 µM)
- Cl.N#C/C(=C\c1ccccc1)C(=O)NCCN1CCOCC1 — higher, > 48.3 µg/mL
